This passage reports GI50 and TGI results from PubChem BioAssay (NCI).

A word on the GI50: it is the concentration giving 50% growth inhibition. A word on the TGI: it is the concentration giving total growth inhibition. Low values mean more potent growth arrest, high ones less potent growth arrest.

Several values for one entry are separate records, joined by “and”; a condition that tells them apart may be missing. Equal entries are not always repeated.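 Briefly, cells in 96-well plates were exposed to five compound concentrations for 48 h, and endpoints were estimated by linear interpolation. GI50 is the concentration that inhibits growth by half. TGI: total growth inhibition.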 Bounds are passed on as bounds.

Holding throughout (assay): DTP human tumour cell line panel, 48 h
Assay [1] deals with MCF7 breast.
Assay [2] relates to A498 renal.
Assay [3] concerns KM12 colon.
Assay [4] relates to COLO 205 colon.
For assay [5], the system named is NCI-H226 lung.
Assay [6] has as its system K-562 leukemia.
For assay [7], the system named is HCT-116 colon.
Assay [8] concerns SW-620 colon.
The test system of assay [9] is RXF 393 renal.
Assay [10] deals with HS 578T breast.

In the case of `Cc1ccc(-c2cc(C(=O)Nc3ccc(S(=O)(=O)N4CCCCC4)cc3)[nH]n2)c(O)c1`, the GI50 was more than 100 µM in [1]; more than 100 µM in assay [2]; more than 100 µM in assay [3]; more than 100 µM in assay [4]; more than 100 µM in assay [5]; 74.1 µM in assay [6]. Further, the GI50 in assay [7], in [8], in assay [9] and in assay [10] was more than 100 µM throughout. The concentration for total growth inhibition (TGI) in [1], in assay [2], in assay [3], in assay [4], in assay [5] and in assay [6] was more than 100 µM throughout. For the same compound, the TGI in assay [7], in assay [8], in assay [9] and in assay [10] was more than 100 µM in each case.

For the compound `CCc1cc2c(c(OCC(F)(F)F)c(C(=O)NC3CCN(C(=O)CO)CC3)n2C)c(=O)n1CC(=O)c1ccccc1`, the GI50 in assay [1] is 44 µM; in assay [2], 99.3 µM; in [3], 58.5 µM; in assay [4], more than 100 µM; in assay [5] it was 97 µM; in assay [6], 34.4 µM. Moreover, the GI50 in [7] is 63.5 µM; in assay [8] it was more than 59.4 µM; in assay [9], 11.2 µM; in [10], 34.4 µM. Besides, the TGI in assay [1], in assay [2], in assay [3], in assay [4], in [5] and in assay [6] was more than 100 µM throughout. For the same compound, the total growth inhibition concentration (TGI) in assay [7] was more than 100 µM; in assay [8], more than 100 µM; in [9], 42.7 µM; in assay [10] it was more than 100 µM.

`COc1cccc(/C=C2\CCC(CN(C)C)C2=O)c1` (stereo not given): the total growth inhibition concentration (TGI) in assay [1] stood at 13.2 µM; in [2] it was 31.5 µM; in [3], 15.1 µM; in [4], 24.5 µM; in assay [5] it was 33.6 µM; in assay [6], 4.89 µM. Further, the concentration for total growth inhibition (TGI) in assay [7] is 16 µM; in [8] it was 8.52 µM; in assay [9], 12.3 µM; in [10], more than 89.4 µM.

Regarding `c1cc(OCCN2CCCC2)ccc1CNc1ccc2nc(CCC3CCCCC3)[nH]c2c1`, the GI50 is 1.63 µM in assay [1]; 1.15 µM in [2]; 2.7 µM in [3]; 1.7 µM in assay [4]; 1.51 µM in assay [5]; 0.414 µM in [6]. For the same compound, the GI50 in [7] was 1.43 µM; in assay [8] it was 1.85 µM; in [9], 1.32 µM; in assay [10], 1.62 µM. Further, the TGI in [1] came to 4.66 µM; in assay [2], 2.77 µM; in assay [3], 8.46 µM; in assay [4], 3.35 µM; in assay [5] it was 3.6 µM; in assay [6] it was 2.11 µM. For the same compound, the TGI is 3.2 µM in [7], 3.96 µM in assay [8], 3.23 µM in assay [9] and 4.53 µM in [10].

For the compound `CN1CCN(C)C1c1ccc(C2N(C)CCN2C)cc1`, the GI50 in assay [1] was 20.1 µM; in [2], 14.4 µM; in assay [3], 46.5 µM; in [4], 23 µM; in assay [5], more than 100 µM; in assay [6], 38.5 µM. Further, the GI50 is 17.8 µM in assay [7], 25 µM in assay [8], more than 100 µM in assay [9] and 64 µM in [10]. Further, the TGI in assay [1] is more than 100 µM; in assay [2], more than 100 µM; in assay [3] it was more than 100 µM; in assay [4], 65.2 µM; in assay [5] it was more than 100 µM; in [6], more than 100 µM. Besides, the concentration for total growth inhibition (TGI) in [7] is 38 µM; in assay [8] it was more than 100 µM; in [9], more than 100 µM; in assay [10], more than 100 µM.

For `CCCCN(CCCC)P(=O)(Oc1ccccc1)Oc1ccccc1`, the GI50 in assay [1] was 4.83 µM; in assay [2], 11.6 µM; in [3], 8.1 µM; in assay [4], 11.3 µM; in [5], 10.4 µM; in [6] it was 7.01 µM. Moreover, the GI50 in assay [7] is 3.39 µM; in assay [8], 5.41 µM; in assay [9], 1.85 µM; in assay [10] it was 6.6 µM. In addition, the TGI is 18.6 µM in assay [1]; 24.1 µM in [2]; 21.4 µM in assay [3]; 26.7 µM in assay [4]; 25.4 µM in [5]; more than 100 µM in assay [6]. The concentration for total growth inhibition (TGI) in assay [7] was 16.8 µM; in assay [8], 19.4 µM; in assay [9] it was 5.97 µM; in assay [10], 24.8 µM.

As to `O=C(COc1ccccc1)NNc1ccccc1`, the GI50 in [1] was 47.8 µM and 38.8 µM; in assay [2], 87.7 µM; in assay [3] it was 9.03 µM and 6.49 µM; in [4] it was 17.6 µM and 11.9 µM; in assay [5] it was > 92.3 µM and 224 µM; in assay [6] it was 3.67 µM and 6.43 µM. Further, the GI50 was 207 µM in assay [7]; 13.4 µM and 18.9 µM in [8]; 98.9 µM in [9]; 98.3 µM in assay [10]. The TGI in assay [1] was more than 300 µM; in assay [2], more than 300 µM; in assay [3], more than 300 µM; in assay [4] it was > 86.6 µM and 197 µM; in assay [5], more than 300 µM; in assay [6], more than 300 µM. Further, the concentration for total growth inhibition (TGI) in assay [7], in [8], in assay [9] and in assay [10] was more than 300 µM throughout.

`O=c1[nH]c(-c2ccc(Cl)c(Cl)c2)cn1-c1ccc(Cl)cc1`: the GI50 in [1] was 56.3 µM; in assay [2], 22.2 µM; in assay [3] it was 71.3 µM; in assay [4], 40.3 µM; in assay [5], 22.9 µM; in [6], 21.5 µM. Also, the GI50 in assay [7] was 15.8 µM; in [8], 33.1 µM; in assay [9] it was 32.7 µM; in [10], 17.2 µM. Besides, the TGI in assay [1] was more than 100 µM; in assay [2], 47.6 µM; in [3] it was more than 100 µM; in assay [4], more than 100 µM; in assay [5], 54.1 µM; in [6], 46.9 µM. For the same compound, the concentration for total growth inhibition (TGI) in assay [7] is 34 µM; in assay [8] it was more than 100 µM; in assay [9], 56.4 µM; in [10], 51.8 µM.
